# Results as given in ChEMBL document CHEMBL1201862, “PubChem BioAssay data set” (2004).
#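 These data come from cells grown in 96-well plates and exposed to compound for 48 hours at five concentrations. Here, GI50 denotes the concentration required for 50% inhibition of growth.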 The source made the active and inactive calls. Rule as the data show it: active = GI50 up to about 1.1 µM and inactive = higher.
# How the values were obtained:
# Test in all cases: growth of human tumour cells (NCI), 48 h
# ACHN = system: ACHN
# OVCAR-4 = system: OVCAR-4
# HCT-15 = system: HCT-15
# DU-145 = system: DU-145
# EKVX = system: EKVX
# MOLT-4 = system: MOLT-4
# NCI-H23 = system: NCI-H23
# TK-10 = system: TK-10
# SNB-19 = system: SNB-19
# A549 = system: A549
# UO-31 = system: UO-31
# SW-620 = system: SW-620
# SF-539 = system: SF-539
# SF-268 = system: SF-268
# OVCAR-5 = system: OVCAR-5
# HOP-62 = system: HOP-62
# SK-MEL-2 = system: SK-MEL-2
# HT-29 = system: HT-29
# NCI-H460 = system: NCI-H460
# SK-MEL-28 = system: SK-MEL-28
# 786-0 = system: 786-0
# RPMI-8226 = system: RPMI-8226
# HL-60 = system: HL-60
# MDA-N = system: MDA-N
# NCI-H522 = system: NCI-H522
# KM12 = system: KM12
# MCF7 = system: MCF7
# COLO 205 = system: COLO 205
# K562 = system: K562
# MDA-MB-435 = system: MDA-MB-435
# HOP-92 = system: HOP-92
# PC-3 = system: PC-3
# UACC-257 = system: UACC-257
# HCT-116 = system: HCT-116
# OVCAR-8 = system: OVCAR-8
# NCI/ADR-RES = system: NCI/ADR-RES
# A498 = system: A498
# M14 = system: M14
# HCC 2998 = system: HCC 2998
# Hs-578T = system: Hs-578T
# SK-MEL-5 = system: SK-MEL-5
# OVCAR-3 = system: OVCAR-3
# SN12C = system: SN12C
# T47D = system: T47D
# LOX IMVI = system: LOX IMVI
# MDA-MB-231 = system: MDA-MB-231
# SF-295 = system: SF-295
# UACC-62 = system: UACC-62
# SK-OV-3 = system: SK-OV-3
# SR = system: SR
# CCRF-CEM = system: CCRF-CEM
# SNB-75 = system: SNB-75
# U-251 = system: U-251
# IGROV-1 = system: IGROV-1
# NCI-H226 = system: NCI-H226
# CAKI-1 = system: CAKI-1
# Malme-3M = system: Malme-3M
# RXF 393 = system: RXF 393
smiles,measurement,setting,value
Cc1c(C)c(S(=O)(=O)N(CCCCN)OCCCN)c(C)c2c1OC(C)(C)CC2,GI50,ACHN,20.8 µM (inactive)
same,GI50,OVCAR-4,13.8 µM (inactive)
same,GI50,HCT-15,21.5 µM
same,GI50,DU-145,23.7 µM (inactive)
same,GI50,EKVX,16 µM (inactive)
same,GI50,MOLT-4,19.6 µM (inactive)
same,GI50,NCI-H23,16.4 µM (inactive)
same,GI50,TK-10,14.5 µM (inactive)
same,GI50,SNB-19,15.1 µM (inactive)
same,GI50,A549,19.2 µM (inactive)
same,GI50,UO-31,19.4 µM (inactive)
same,GI50,SW-620,31.8 µM (inactive)
same,GI50,SF-539,24 µM (inactive)
same,GI50,SF-268,15.4 µM (inactive)
same,GI50,OVCAR-5,15.1 µM (inactive)
same,GI50,HOP-62,13.4 µM (inactive)
same,GI50,SK-MEL-2,11.1 µM (inactive)
same,GI50,HT-29,17.6 µM (inactive)
same,GI50,NCI-H460,12.9 µM (inactive)
same,GI50,SK-MEL-28,19.6 µM (inactive)
same,GI50,786-0,13.7 µM (inactive)
same,GI50,RPMI-8226,23.3 µM (inactive)
same,GI50,HL-60,1 µM (active)
same,GI50,MDA-N,22.8 µM (inactive)
same,GI50,NCI-H522,13.1 µM (inactive)
same,GI50,KM12,17.1 µM (inactive)
same,GI50,MCF7,26.6 µM (inactive)
same,GI50,COLO 205,31.2 µM (inactive)
same,GI50,K562,32.4 µM (inactive)
same,GI50,MDA-MB-435,16.5 µM (inactive)
same,GI50,HOP-92,17.8 µM (inactive)
same,GI50,PC-3,5.47 µM (inactive)
same,GI50,UACC-257,22.2 µM (inactive)
same,GI50,HCT-116,16.6 µM (inactive)
same,GI50,OVCAR-8,18.7 µM (inactive)
same,GI50,NCI/ADR-RES,74.6 µM (inactive)
same,GI50,A498,16 µM (inactive)
same,GI50,M14,28.6 µM (inactive)
same,GI50,HCC 2998,6.08 µM (inactive)
same,GI50,Hs-578T,13.2 µM (inactive)
same,GI50,SK-MEL-5,33 µM (inactive)
same,GI50,OVCAR-3,13.3 µM (inactive)
same,GI50,SN12C,29.6 µM (inactive)
same,GI50,T47D,23.7 µM (inactive)
same,GI50,LOX IMVI,6.22 µM (inactive)
same,GI50,MDA-MB-231,21.7 µM (inactive)
same,GI50,SF-295,17.7 µM (inactive)
same,GI50,UACC-62,20.7 µM (inactive)
same,GI50,SK-OV-3,15.6 µM (inactive)
same,GI50,SR,42.7 µM (inactive)
same,GI50,CCRF-CEM,16.4 µM (inactive)
same,GI50,SNB-75,13.8 µM (inactive)
same,GI50,U-251,21.9 µM (inactive)
same,GI50,IGROV-1,4.51 µM (inactive)
same,GI50,NCI-H226,13.1 µM (inactive)
same,GI50,CAKI-1,32.1 µM (inactive)
CCOP(=O)(OCC)C(Nc1ccc(Cl)cc1)c1ccc(F)cc1 (stereo not given),GI50,ACHN,28.4 µM (inactive)
same,GI50,OVCAR-4,36.2 µM (inactive)
same,GI50,HCT-15,26.7 µM
same,GI50,DU-145,24.5 µM (inactive)
same,GI50,EKVX,29.2 µM (inactive)
same,GI50,MOLT-4,23.1 µM (inactive)
same,GI50,NCI-H23,16.3 µM (inactive)
same,GI50,TK-10,42.7 µM (inactive)
same,GI50,SNB-19,26.7 µM (inactive)
same,GI50,A549,31 µM (inactive)
same,GI50,UO-31,20.7 µM (inactive)
same,GI50,SW-620,> 10 µM (inactive)
same,GI50,SF-539,22 µM (inactive)
same,GI50,SF-268,20.1 µM (inactive)
same,GI50,HOP-62,19 µM (inactive)
same,GI50,SK-MEL-2,14.6 µM (inactive)
same,GI50,HT-29,22 µM (inactive)
same,GI50,NCI-H460,19.5 µM (inactive)
same,GI50,SK-MEL-28,18.4 µM (inactive)
same,GI50,786-0,19.3 µM (inactive)
same,GI50,RPMI-8226,22.5 µM (inactive)
same,GI50,HL-60,18.6 µM (inactive)
same,GI50,MDA-N,19.9 µM (inactive)
same,GI50,NCI-H522,20.3 µM (inactive)
same,GI50,KM12,31 µM (inactive)
same,GI50,COLO 205,29.4 µM (inactive)
same,GI50,K562,25.5 µM (inactive)
same,GI50,MDA-MB-435,15.7 µM (inactive)
same,GI50,Malme-3M,19.1 µM (inactive)
same,GI50,HOP-92,22 µM (inactive)
same,GI50,UACC-257,18.5 µM (inactive)
same,GI50,HCT-116,19.2 µM (inactive)
same,GI50,OVCAR-8,28.8 µM (inactive)
same,GI50,NCI/ADR-RES,22.8 µM (inactive)
same,GI50,A498,18.5 µM (inactive)
same,GI50,M14,16.6 µM (inactive)
same,GI50,HCC 2998,22 µM (inactive)
same,GI50,Hs-578T,20.8 µM (inactive)
same,GI50,SK-MEL-5,17.3 µM (inactive)
same,GI50,OVCAR-3,29.5 µM (inactive)
same,GI50,SN12C,18.4 µM (inactive)
same,GI50,T47D,16.6 µM (inactive)
same,GI50,LOX IMVI,15.7 µM (inactive)
same,GI50,MDA-MB-231,21.2 µM (inactive)
same,GI50,SF-295,19.8 µM (inactive)
same,GI50,UACC-62,4.7 µM (inactive)
same,GI50,SK-OV-3,41.7 µM (inactive)
same,GI50,SR,40.8 µM (inactive)
same,GI50,CCRF-CEM,29.5 µM (inactive)
same,GI50,SNB-75,20.5 µM (inactive)
same,GI50,U-251,18.2 µM (inactive)
same,GI50,IGROV-1,> 10 µM (inactive)
same,GI50,NCI-H226,25.8 µM (inactive)
same,GI50,RXF 393,21.2 µM (inactive)
same,GI50,CAKI-1,22.3 µM (inactive)
O=C1C=CC2C3C(=O)N(c4ccccc4)C(=O)C3C1N2Cc1ccccc1 (stereo not given),GI50,HOP-62,3.72 µM (inactive)
same,GI50,COLO 205,3.1 µM (inactive)
same,GI50,Hs-578T,3.51 µM (inactive)
same,GI50,NCI-H226,8.07 µM (inactive)
CC(=O)c1c(-c2cccc3ccccc23)c(C#N)c(=S)n(C2OC(CO)C(O)C(O)C2O)c1-c1ccccc1 (stereo not given),GI50,EKVX,0.0509 µM (active)
same,GI50,HOP-92,13.5 µM (inactive)
CCP(=S)(CC)CCl,GI50,ACHN,> 100 µM (inactive)
same,GI50,OVCAR-4,> 100 µM (inactive)
same,GI50,HCT-15,> 100 µM
same,GI50,DU-145,> 100 µM (inactive)
same,GI50,MOLT-4,> 10 µM (inactive)
same,GI50,NCI-H23,> 100 µM (inactive)
same,GI50,TK-10,> 100 µM (inactive)
same,GI50,SNB-19,> 100 µM (inactive)
same,GI50,A549,> 100 µM (inactive)
same,GI50,UO-31,> 100 µM (inactive)
same,GI50,SW-620,> 100 µM (inactive)
same,GI50,OVCAR-5,> 100 µM (inactive)
same,GI50,HOP-62,> 100 µM (inactive)
same,GI50,SK-MEL-2,> 100 µM (inactive)
same,GI50,HT-29,> 100 µM (inactive)
same,GI50,NCI-H460,> 100 µM (inactive)
same,GI50,SK-MEL-28,> 100 µM (inactive)
same,GI50,RPMI-8226,> 100 µM (inactive)
same,GI50,HL-60,> 100 µM (inactive)
same,GI50,MDA-N,> 100 µM (inactive)
same,GI50,NCI-H522,> 100 µM (inactive)
same,GI50,MCF7,> 100 µM (inactive)
same,GI50,COLO 205,> 100 µM (inactive)
same,GI50,K562,> 100 µM (inactive)
same,GI50,HOP-92,73.5 µM (inactive)
same,GI50,PC-3,> 100 µM (inactive)
same,GI50,UACC-257,> 100 µM (inactive)
same,GI50,HCT-116,> 100 µM (inactive)
same,GI50,OVCAR-8,> 100 µM (inactive)
same,GI50,NCI/ADR-RES,> 100 µM (inactive)
same,GI50,M14,> 100 µM (inactive)
same,GI50,HCC 2998,> 100 µM (inactive)
same,GI50,Hs-578T,> 100 µM (inactive)
same,GI50,SK-MEL-5,> 100 µM (inactive)
same,GI50,OVCAR-3,> 100 µM (inactive)
same,GI50,SN12C,> 100 µM (inactive)
same,GI50,T47D,> 100 µM (inactive)
same,GI50,LOX IMVI,> 100 µM (inactive)
same,GI50,MDA-MB-231,> 100 µM (inactive)
same,GI50,SF-295,> 100 µM (inactive)
same,GI50,SK-OV-3,> 100 µM (inactive)
same,GI50,SR,> 100 µM (inactive)
same,GI50,CCRF-CEM,> 100 µM (inactive)
same,GI50,SNB-75,> 100 µM (inactive)
same,GI50,U-251,> 100 µM (inactive)
same,GI50,IGROV-1,> 100 µM (inactive)
same,GI50,NCI-H226,> 100 µM (inactive)
same,GI50,CAKI-1,> 100 µM (inactive)
